Source: patent publication US11179396B2, “Heterocyclic compounds as antibacterials” (Janssen Sciences Ireland Unlimited Company, priority 2016, dated 2021)
Values after ≈ are worked out from the molar mass of the structure shown.

What was measured:
M. tuberculosis = settings: cited from earlier work
M. tuberculosis H37Rv = settings: strain M. tuberculosis H37Rv, inside macrophages; cited from earlier work
[1] = system: Mycobacterium tuberculosis strain EH 4.0 (361.269); test: Test 4: resazurin growth inhibition assay, M. tuberculosis strain EH 4.0; assay type: cell-based; settings: read-out: pIC50 (converted)
Text: Test 4 (See Also Test 1 Above; in this Test a Different Strain of Mycobacterium tuberculosis Strain is Employed)
Appropriate solutions of experimental and reference compounds were made in 96 well plates with 7H9 medium. Samples of Mycobacterium tuberculosis strain EH 4.0 (361.269) were taken from cultures in stationary growth phase. These were first diluted to obtain an optical density of 0.3 at 600 nm wavelength and then diluted 1/100, resulting in an inoculum of approximately 5×10 exp5 colony forming units per well. Plates were incubated at 37° C. in plastic bags to prevent evaporation. After 7 days, resazurin was added to all wells. Two days later, fluorescence was measured on a Gemini EM Microplate Reader with 543 nm excitation and 590 nm emission wavelengths and MIC50 and/or pIC50 values (or the like, e.g. IC50, IC90, pIC90, etc) were (or may be) calculated. pIC50 values may be recorded below in μg/mL.

SMILES: CCc1nc2ccc(Cl)cn2c1C(=O)NCc1ccc(N2CCC(c3ccc(OC(F)(F)F)cc3)CC2)cc1 [Compound Q203]
- activity against both replicating and non-replicating bacteria (M. tuberculosis): highly active
- MIC50 (M. tuberculosis H37Rv): 0.28 nM (≈ 0.156 ng/mL)

SMILES: CCc1nc2ccc(Cl)cn2c1C(=O)NCc1ccc(N2CC3CC(F)CC3C2)cc1 (stereo not drawn) [Cpd 1]
- IC50 [1]: 39.8 nM

SMILES: CCc1nc2sc(C)cn2c1C(=O)NCc1ccc(N2CC3CC(F)CC3C2)cc1 (stereo not drawn) [Cpd 2]
- IC50 [1]: 50.1 nM

SMILES: CCc1nc2n(c1C(=O)NCc1ccc(N3CC4CC(F)CC4C3)cc1)CCCC2 (stereo not drawn) [Cpd 3]
- IC50 [1]: 100 nM

SMILES: CCc1nc2ncc(Cl)cn2c1C(=O)NCc1ccc(N2CC3CC(F)CC3C2)cc1 (stereo not drawn) [Cpd 4]
- IC50 [1]: 112 nM

SMILES: CCc1nc2sc(C)cn2c1C(=O)NCc1ccc(N2CC3C(C2)C3C(F)(F)F)cc1 (stereo not drawn) [Cpd 7]
- IC50 [1]: 31.6 nM

SMILES: Cc1nn2ccccc2c1C(=O)NCc1ccc(N2C[C@H]3C[C@H](F)C[C@H]3C2)cc1 [Cpd 8]
- IC50 [1]: 1120 nM

SMILES: CCc1nc2ncc(Cl)cn2c1C(=O)NCc1ccc(N2C[C@@H]3CC(F)(F)C[C@@H]3C2)cc1 [Cpd 9]
- IC50 [1]: 15.8 nM
